Organism: Rattus norvegicus
Test: Open TG-GATES - Regimen: Daily Repeat
Type: toxicity, organism-based, Sprague-Dawley
Parameters: regimen Daily Repeat, gender Male, age 6 weeks
Conditions: in vivo, po, route gavage; for APTT / Bas / Eos / Fbg / Hb / Ht / Lym / MCH / MCHC / MCV / Mono / Neu / PT / Plat / RBC / Ret / WBC: tissue Blood; for KIDNEY_L / KIDNEY_R / KIDNEY_TOTAL: tissue Kidney; for LIVER: tissue Liver; for A/G / ALP / ALT / AST / BUN / CRE / Ca / Cl / DBIL / GLC / IP / K / LDH / Na / PL / RALB / TBIL / TC / TG / TP / gamma-GTP: tissue Plasma
[1] = 60 mg/kg, 72 h, dose level Middle, time 3 day
[2] = 60 mg/kg, […], dose level Middle, time 7 day
[3] = 60 mg/kg, […], dose level Middle, time 14 day
[4] = 60 mg/kg, […], dose level Middle, time 28 day
[5] = 200 mg/kg, 72 h, dose level High, time 3 day
[6] = 200 mg/kg, […], dose level High, time 7 day
[7] = 200 mg/kg, […], dose level High, time 14 day
[8] = 200 mg/kg, […], dose level High, time 28 day

CCc1oc2ccccc2c1C(=O)c1cc(Br)c(O)c(Br)c1 [BENZBROMARONE]
TERMINAL_BW [1]: 238.9 g
APTT [1]: 16.6 s
Bas [1]: 0%
Eos [1]: 1%
Fbg [1]: 234.4 mg/dL
Hb [1]: 13.5 g/dL
Ht [1]: 40%
Lym [1]: 76.4%
MCH [1]: 21.6 pg
MCHC [1]: 33.8%
MCV [1]: 63.7 fL
Mono [1]: 7.2%
Neu [1]: 15.8%
PT [1]: 11.6 s
Plat [1]: 109.3 x10_4/uL
RBC [1]: 628.4 x10_4/ul
Ret [1]: 7.7%
WBC [1]: 107.1 x10_2/uL
KIDNEY_L [1]: 1.1 g
KIDNEY_R [1]: 1.1 g
KIDNEY_TOTAL [1]: 2.1 g
LIVER [1]: 14.3 g
A/G [1]: 2
ALP [1]: 793.8 IU/L
ALT [1]: 33.6 IU/L
AST [1]: 62.2 IU/L
BUN [1]: 18 mg/dL
CRE [1]: 0.6 mg/dL
Ca [1]: 10.3 mg/dL
Cl [1]: 106.2 meq/L
DBIL [1]: 0.014 mg/dL
GLC [1]: 190 mg/dL
IP [1]: 7.8 mg/dL
K [1]: 4.5 meq/L
LDH [1]: 104.4 IU/L
Na [1]: 140.2 meq/L
PL [1]: 138 mg/dL
RALB [1]: 4 g/dL
TBIL [1]: 0.3 mg/dL
TC [1]: 76.4 mg/dL
TG [1]: 62.8 mg/dL
TP [1]: 5.9 g/dL
gamma-GTP [1]: 0.8 IU/L
TERMINAL_BW [2]: 264.4 g
TERMINAL_BW [3]: 327 g
TERMINAL_BW [4]: 383.7 g
APTT [2]: 17.8 s
Bas [2]: 0%
Eos [2]: 1.2%
Fbg [2]: 234.6 mg/dL
Hb [2]: 14.4 g/dL
Ht [2]: 42.8%
Lym [2]: 80.8%
MCH [2]: 21.3 pg
MCHC [2]: 33.7%
MCV [2]: 63.3 fL
Mono [2]: 6.4%
Neu [2]: 11%
PT [2]: 12.2 s
Plat [2]: 119.4 x10_4/uL
RBC [2]: 675.2 x10_4/ul
Ret [2]: 5.6%
WBC [2]: 106.8 x10_2/uL
APTT [3]: 17.5 s
Bas [3]: 0%
Eos [3]: 1%
Fbg [3]: 237 mg/dL
Hb [3]: 14.5 g/dL
Ht [3]: 43.2%
Lym [3]: 79.4%
MCH [3]: 21.1 pg
MCHC [3]: 33.5%
MCV [3]: 63.1 fL
Mono [3]: 7%
Neu [3]: 12.4%
PT [3]: 12.1 s
Plat [3]: 110.5 x10_4/uL
RBC [3]: 685.4 x10_4/ul
Ret [3]: 4.6%
WBC [3]: 129.3 x10_2/uL
APTT [4]: 18.4 s
Bas [4]: 0%
Eos [4]: 1.6%
Fbg [4]: 232.6 mg/dL
Hb [4]: 15.2 g/dL
Ht [4]: 45.8%
Lym [4]: 84.2%
MCH [4]: 19.3 pg
MCHC [4]: 33.1%
MCV [4]: 58.2 fL
Mono [4]: 6%
Neu [4]: 8.8%
PT [4]: 12.3 s
Plat [4]: 107.4 x10_4/uL
RBC [4]: 787.4 x10_4/ul
Ret [4]: 2.8%
WBC [4]: 139.8 x10_2/uL
KIDNEY_L [2]: 1.2 g
KIDNEY_R [2]: 1.2 g
KIDNEY_TOTAL [2]: 2.4 g
KIDNEY_L [3]: 1.4 g
KIDNEY_R [3]: 1.3 g
KIDNEY_TOTAL [3]: 2.7 g
KIDNEY_L [4]: 1.5 g
KIDNEY_R [4]: 1.5 g
KIDNEY_TOTAL [4]: 2.9 g
LIVER [2]: 16.1 g
LIVER [3]: 20.1 g
LIVER [4]: 21.5 g
A/G [2]: 2.4
ALP [2]: 869.6 IU/L
ALT [2]: 28 IU/L
AST [2]: 57 IU/L
BUN [2]: 20 mg/dL
CRE [2]: 0.6 mg/dL
Ca [2]: 10.5 mg/dL
Cl [2]: 107.4 meq/L
DBIL [2]: 0 mg/dL
GLC [2]: 186.8 mg/dL
IP [2]: 7.8 mg/dL
K [2]: 5 meq/L
LDH [2]: 96.2 IU/L
Na [2]: 139.7 meq/L
PL [2]: 154 mg/dL
RALB [2]: 4.4 g/dL
TBIL [2]: 0.3 mg/dL
TC [2]: 82.6 mg/dL
TG [2]: 80 mg/dL
TP [2]: 6.3 g/dL
gamma-GTP [2]: 0.2 IU/L
A/G [3]: 2.1
ALP [3]: 872.6 IU/L
ALT [3]: 29.4 IU/L
AST [3]: 57.8 IU/L
BUN [3]: 20.2 mg/dL
CRE [3]: 0.6 mg/dL
Ca [3]: 10.5 mg/dL
Cl [3]: 106.3 meq/L
DBIL [3]: 0.01 mg/dL
GLC [3]: 191.4 mg/dL
IP [3]: 7.6 mg/dL
K [3]: 4.7 meq/L
LDH [3]: 97.4 IU/L
Na [3]: 140.3 meq/L
PL [3]: 156.4 mg/dL
RALB [3]: 4.5 g/dL
TBIL [3]: 0.3 mg/dL
TC [3]: 85.6 mg/dL
TG [3]: 85.8 mg/dL
TP [3]: 6.6 g/dL
gamma-GTP [3]: 0.8 IU/L
A/G [4]: 1.9
ALP [4]: 605.2 IU/L
ALT [4]: 34 IU/L
AST [4]: 54 IU/L
BUN [4]: 19.2 mg/dL
CRE [4]: 0.6 mg/dL
Ca [4]: 9.9 mg/dL
Cl [4]: 108.4 meq/L
DBIL [4]: 0.016 mg/dL
GLC [4]: 185.2 mg/dL
IP [4]: 6.9 mg/dL
K [4]: 4.5 meq/L
LDH [4]: 147.4 IU/L
Na [4]: 141 meq/L
PL [4]: 144.6 mg/dL
RALB [4]: 4.3 g/dL
TBIL [4]: 0.2 mg/dL
TC [4]: 84.4 mg/dL
TG [4]: 75.4 mg/dL
TP [4]: 6.6 g/dL
gamma-GTP [4]: 1 IU/L
TERMINAL_BW [5]: 217 g
APTT [5]: 22.6 s
Bas [5]: 0%
Eos [5]: 1.2%
Fbg [5]: 211 mg/dL
Hb [5]: 14 g/dL
Ht [5]: 41.9%
Lym [5]: 80%
MCH [5]: 21.9 pg
MCHC [5]: 33.5%
MCV [5]: 65.5 fL
Mono [5]: 5%
Neu [5]: 14.2%
PT [5]: 14.6 s
Plat [5]: 104.6 x10_4/uL
RBC [5]: 640.8 x10_4/ul
Ret [5]: 5.7%
WBC [5]: 124.5 x10_2/uL
KIDNEY_L [5]: 1 g
KIDNEY_R [5]: 1 g
KIDNEY_TOTAL [5]: 2 g
LIVER [5]: 15.3 g
A/G [5]: 2.6
ALP [5]: 1041.8 IU/L
ALT [5]: 45.5 IU/L
AST [5]: 69.2 IU/L
BUN [5]: 17 mg/dL
CRE [5]: 0.7 mg/dL
Ca [5]: 10 mg/dL
Cl [5]: 107.9 meq/L
DBIL [5]: 0.025 mg/dL
GLC [5]: 167.2 mg/dL
IP [5]: 6.7 mg/dL
K [5]: 4.4 meq/L
LDH [5]: 195 IU/L
Na [5]: 141.3 meq/L
PL [5]: 129.2 mg/dL
RALB [5]: 4.1 g/dL
TBIL [5]: 0.3 mg/dL
TC [5]: 73.2 mg/dL
TG [5]: 52.8 mg/dL
TP [5]: 5.7 g/dL
gamma-GTP [5]: 1 IU/L
TERMINAL_BW [6]: 254.9 g
TERMINAL_BW [7]: 307.7 g
TERMINAL_BW [8]: 357.4 g
APTT [6]: 18.9 s
Bas [6]: 0%
Eos [6]: 1.5%
Fbg [6]: 238.5 mg/dL
Hb [6]: 14.4 g/dL
Ht [6]: 42.8%
Lym [6]: 75.5%
MCH [6]: 21.6 pg
MCHC [6]: 33.6%
MCV [6]: 64.1 fL
Mono [6]: 7%
Neu [6]: 16.2%
PT [6]: 12.2 s
Plat [6]: 113.7 x10_4/uL
RBC [6]: 668.5 x10_4/ul
Ret [6]: 5.2%
WBC [6]: 92.8 x10_2/uL
APTT [7]: 18.5 s
Bas [7]: 0%
Eos [7]: 1%
Fbg [7]: 224.4 mg/dL
Hb [7]: 14.3 g/dL
Ht [7]: 42.7%
Lym [7]: 73.6%
MCH [7]: 20.6 pg
MCHC [7]: 33.4%
MCV [7]: 61.6 fL
Mono [7]: 6.2%
Neu [7]: 19.8%
PT [7]: 12.5 s
Plat [7]: 99.2 x10_4/uL
RBC [7]: 694 x10_4/ul
Ret [7]: 4.5%
WBC [7]: 138 x10_2/uL
APTT [8]: 17.9 s
Bas [8]: 0%
Eos [8]: 1.5%
Fbg [8]: 204 mg/dL
Hb [8]: 15 g/dL
Ht [8]: 44.7%
Lym [8]: 79.2%
MCH [8]: 19.1 pg
MCHC [8]: 33.5%
MCV [8]: 57.1 fL
Mono [8]: 5.8%
Neu [8]: 14.2%
PT [8]: 12.5 s
Plat [8]: 99.8 x10_4/uL
RBC [8]: 783.2 x10_4/ul
Ret [8]: 2.7%
WBC [8]: 130.6 x10_2/uL
KIDNEY_L [6]: 1.1 g
KIDNEY_R [6]: 1.1 g
KIDNEY_TOTAL [6]: 2.1 g
KIDNEY_L [7]: 1.2 g
KIDNEY_R [7]: 1.3 g
KIDNEY_TOTAL [7]: 2.5 g
KIDNEY_L [8]: 1.3 g
KIDNEY_R [8]: 1.4 g
KIDNEY_TOTAL [8]: 2.8 g
LIVER [6]: 18.9 g
LIVER [7]: 22.3 g
LIVER [8]: 22.9 g
A/G [6]: 2.6
ALP [6]: 853.5 IU/L
ALT [6]: 34.2 IU/L
AST [6]: 61.2 IU/L
BUN [6]: 22 mg/dL
CRE [6]: 0.6 mg/dL
Ca [6]: 10.5 mg/dL
Cl [6]: 106.8 meq/L
DBIL [6]: 0.0225 mg/dL
GLC [6]: 190 mg/dL
IP [6]: 8.1 mg/dL
K [6]: 4.5 meq/L
LDH [6]: 201.5 IU/L
Na [6]: 140.7 meq/L
PL [6]: 157.5 mg/dL
RALB [6]: 4.7 g/dL
TBIL [6]: 0.2 mg/dL
TC [6]: 100.8 mg/dL
TG [6]: 35.8 mg/dL
TP [6]: 6.5 g/dL
gamma-GTP [6]: 1 IU/L
A/G [7]: 2.3
ALP [7]: 1092 IU/L
ALT [7]: 36.2 IU/L
AST [7]: 63.6 IU/L
BUN [7]: 21 mg/dL
CRE [7]: 0.6 mg/dL
Ca [7]: 10.4 mg/dL
Cl [7]: 107.4 meq/L
DBIL [7]: 0.022 mg/dL
GLC [7]: 186 mg/dL
IP [7]: 7.4 mg/dL
K [7]: 4.3 meq/L
LDH [7]: 163.8 IU/L
Na [7]: 141.7 meq/L
PL [7]: 144.2 mg/dL
RALB [7]: 4.4 g/dL
TBIL [7]: 0.3 mg/dL
TC [7]: 87.4 mg/dL
TG [7]: 36.6 mg/dL
TP [7]: 6.3 g/dL
gamma-GTP [7]: 1 IU/L
A/G [8]: 2.2
ALP [8]: 795 IU/L
ALT [8]: 42.5 IU/L
AST [8]: 64.5 IU/L
BUN [8]: 21 mg/dL
CRE [8]: 0.5 mg/dL
Ca [8]: 9.6 mg/dL
Cl [8]: 108.2 meq/L
DBIL [8]: 0.02 mg/dL
GLC [8]: 178.2 mg/dL
IP [8]: 7 mg/dL
K [8]: 4 meq/L
LDH [8]: 108.2 IU/L
Na [8]: 141.9 meq/L
PL [8]: 120 mg/dL
RALB [8]: 4 g/dL
TBIL [8]: 0.3 mg/dL
TC [8]: 69.5 mg/dL
TG [8]: 34.5 mg/dL
TP [8]: 5.9 g/dL
gamma-GTP [8]: 1.2 IU/L

Reference: ChEMBL document CHEMBL3885861, “Open TG-GATES”
